Test results as given in patent US4906755A, “Esters of hexahydro-8-hydroxy-2,6-methano-2H-quinolizin-3-(4H)-one and related compounds” (Merrell Dow Pharmaceuticals Inc., priority 1989, dated 1990).
Counter-ions that a name gives are not always drawn.

Experiments:
[1] = biological target: 5-HT M-receptor; conditions: 5-HT receptor antagonism; literature values (Fozard et al.); cited from earlier work
[2] = slow intravenous injection, 10 mg; cited from earlier work
[3] = animal experimental model (Miner et al.; Costall et al. 1986); cited from earlier work
[4] = test system: Von Bezold-Jarisch Reflex induced by 5-HT; assay: Von Bezold-Jarisch Reflex induced by 5-HT injected intravenously into the rat; type: in vivo
Text: The activity of these compounds against 5-HT can be assessed in vivo by measurement of the effect of the compound on the Von Bezold-Jarisch Reflex induced by 5-HT injected intravenously into the rat (see Paintal A. S., Physiol. Rev., 53, 159-227 […]; J. R. Fozard, Naunyn-Schmiedeberg's Arch. Pharmacol., 326, (1984) 36-44). The transient cardiac slowing arises from an increased afferent vagus activity arising from stimulation by 5-HT of sensory afferent fibers in and around the heart.

[5] = double-blind clinical trial (Loisy et al. 1985); cited from earlier work
[6] = doses of 0.01-0.1 mg/kg given intravenously
[7] = doses of 0.25-1 mg/kg given orally

Structure (SMILES)	pA2 [1]	prevention of nausea and vomiting induced by cancer chemotherapeutic agents [3]	other results
CCN(CC)CCNC(=O)c1cc(Cl)c(N)cc1OC [metoclopramide]	7.2	highly effective	relief of an acute migraine attack [2]: immediate relief
CN1[C@@H]2CC[C@H]1C[C@@H](OC(=O)c1ccccc1)C2 [benzoyltropine]	7.2	–	–
Cc1cc(C)cc(C(=O)O[C@@H]2C[C@@H]3C[C@@H]4C[C@H](C2)N3CC4=O)c1 [endo-8-(3,5-dimethylbenzoyloxy)hexahydro-2,6-methano-2H-quinolizin3(4H)-one]	–	–	suppression of the Von Bezold-Jarisch Reflex response [4, 6]: suppressed the response dose-dependently; suppression of the Von Bezold-Jarisch Reflex response [4, 7]: suppressed the response dose-dependently
CN1[C@@H]2CC[C@H]1C[C@@H](OC(=O)c1cc(Cl)cc(Cl)c1)C2 [3,5-dichlorobenzoyltropine]	–	highly effective	treatment of the acute migraine attack [5]: proved an effective treatment
CN1[C@@H]2CC[C@H]1C[C@H](OC(=O)c1ccccc1)C2 [pseudotropyl benzoate]	7.0	–	–
O=C(O[C@@H]1C[C@@H]2C[C@@H]3C[C@H](C1)N2CC3=O)c1c[nH]c2ccccc12 [endo-hexahydro-8-(3-indolylcarbonyloxy)-2,6-methano-2H-quinolizin-3(4H)onehydrochloride]	–	–	suppression of the Von Bezold-Jarisch Reflex response [4, 6]: suppressed the response dose-dependently; suppression of the Von Bezold-Jarisch Reflex response [4, 7]: suppressed the response dose-dependently
COC(=O)[C@H]1[C@@H](OC(=O)c2ccccc2)C[C@@H]2CC[C@H]1N2 [nor (-) cocaine]	7.7	–	–
CN1[C@@H]2CC[C@H]1C[C@@H](OC(=O)c1c[nH]c3ccccc13)C2 [(3α-tropanyl)-lH-indole-3-carboxylic acid ester]	–	highly effective	–
